Assay results taken from patent publication US9714265B2, “Mutagenic nucleoside analogs and uses thereof” (Massachusetts Institute of Technology, priority 2015, dated 2017).

Assays:
[1] = pH-dependent 1D FTIR / 2D IR spectroscopy of KP1212 in aqueous solutions (pKa); format: physicochemical; conditions: aqueous (D2O) solutions, pH* varied from 1.6 to 13.9; 1D and/or 2D IR spectroscopy, 25° C.
Method: FIGS. 1A to 1E. FIG. 1A: pH-dependent (Fourier transform infrared) FTIR spectra of KP1212 from pH* 1.6 (red or thin solid line) to 13.9 (blue or thick solid line) at 25° C. FIG. 1B: populations of protonated, neutral, and deprotonated KP1212 as a function of pH* obtained from the first three components of singular value decomposition (SVD) analysis. The solid lines show fits of the Henderson-Hasselbalch equation with pKa1 and pKa2. FIGS. 1C to 1E: SVD reconstructed IR spectra representative for the protonated (FIG. 1C), neutral (FIG. 1D), and deprotonated (FIG. 1E) KP1212. The grey curves, labeled A, in FIG. 1C and FIG. 1D are the experimental FTIR spectra of 1-(1′,4′-cyclohexadienyl)-2-methylaminopropane (CMP) at pH* 1.6 and 7.4, respectively. The pH* is the pH measured in D2O, as measured with a pH meter. The FTIR experiments were run in D2O.
An in vitro assay has been developed that allowed the measurement of the mutation type and rate of KP1212 at different pH values, and the mutagenic properties of KP1212 have been evaluated at pH 6-8. […] By simply changing the pH of a composition (e.g., a bodily fluid or aqueous solution) containing KP1212 to 5.9, KP1212 achieves its optimal mutagenicity of about 50%.
For both 1D FTIR and 2D IR experiments, the H/D exchanged KP1212 was dissolved at a concentration of 20 mg/ml (88 mM) in 0.5 M phosphate buffer pD (pH reading in D2O) 7.9. […]

[2] = system: M13 single-stranded genomes, containing one KP1212 base at a specific site; assay: primer extension at various pHs on M13 genome containing KP1212, PCR and REAP assay (mutagenesis); format: biochemical
Method: The method of evaluating the mutagenicity of a compound allows for analyzing the product of a primer extension reaction (by itself a trivial reaction, even if run at different pHs) with the REAP method (this method was published in Delaney, J. C. & Essigmann, J. M., Methods Enzymol. 408, 1-15 (2006)). The methods involve a custom primer, of the form 5′-B-A-3′ and the following protocol. The A sequence is the actual primer for the extension reaction, and by itself has a low (about 37° C.) melting temperature. […] Its melting temperature is high, at about 70° C. The template of the primer extension reaction is an M13 genome containing at a specific site a modified base (or nucleoside analog). After the primer extension reaction, a PCR reaction is run using two primers; primer 1 is the forward primer used in the REAP method (or a primer annealing on the M13 genome upstream of the lesion site); primer 2 is exactly the sequence B. This method guarantees that only the primer extension product will be PCR amplified, and amplification will not depend on the yield of the primer extension reaction. Therefore, this method allows to detect and analyze mutagenic consequences (including rare events) of nucleoside analogs in a variety of conditions, where the type of polymerase, pH, ionic strength, salt concentration, and inhibitors can be varied over a large range of possibilities.
The M13 single-stranded genomes, containing one KP1212 base at a specific site were constructed and purified as previously reported (Li, Fedeles, Singh, Peng et al, 2014, Tautomerism provides a molecular explanation for the mutagenic properties of the anti-HIV nucleoside 5-aza-5,6-dihydro-2′-deoxycytidine, Proc. Natl. Acad. Sci. U.S.A. 111, E3252-3259). […]
The PCR products were subsequently purified and analyzed with the REAP assay as previously described (Li, Fedeles, Singh, Peng et al, 2014, Tautomerism provides a molecular explanation for the mutagenic properties of the anti-HIV nucleoside 5-aza-5,6-dihydro-2′-deoxycytidine. Proc. Natl. Acad. Sci. U.S.A. 111, E3252-3259). […]

[3] = system: single-stranded vector containing a single KP1212; assay: in vitro and in vivo replication of a single-stranded vector containing a single KP1212
Source text: Mutagenic nucleoside analogs may act through lethal mutagenesis. Lethal mutagenesis is a strategy whereby the innate immune system or mutagenic pool nucleotides increase the error rate of viral replication above the error catastrophe limit. Lethal mutagenesis can also increase the mutation rate of the DNA and/or RNA of cancer cells (e.g., cancer cells with a mutator phenotype) to over the error catastrophe limit and thus show genotoxicity and/or mitochondrial toxicity against the cancer cells. Lethal mutagenesis is proposed as a mechanism for several anti-viral compounds, including Ribavirin, which is useful for treating RS virus infection (RSV) and KP1212, a dihydro base which causes A to G and G to A mutations in HIV. […] The mutagenic properties of KP1212 were determined empirically by in vitro and in vivo replication of a single-stranded vector containing a single KP1212. […] A model is proposed that correlates the mutagenicity of KP1212 with its tautomeric distribution in solution. When incorporated into HIV DNA by RT, KP1212 allows DNA synthesis to continue. However, the modified base of KP1212 is able to tautomerize and base-pair alternately with guanine and adenine. […] Variable temperature (VT) nuclear magnetic resonance (NMR) techniques have allowed the identification of compounds capable of multiple tautomerism.

[4] = system: HIV; conditions: Phase I and II; active form of the pro-drug KP1461; cited from earlier work

NC1=NC(=O)N([C@H]2C[C@H](O)[C@@H](CO)O2)CN1 [KP1212, 5-aza-5,6-dihydro-2′-deoxycytidine]
pKa [1]: ~7
mutagenesis ([2]; at pH 5.9): about 50%
mutagenesis ([2]; at pH 8): about 10%
C-to-T mutations in dependence on pH ([2]; pH 5.5-8.5): more C-to-T mutations as the pH decreases
mutagenicity [3]: 10%
C-to-T mutations ([3]; in vivo, when present in a template strand): about 10%
paired with adenine, share of the time ([3]; under physiological conditions): about 10%
paired with guanine, share of the time ([3]; under physiological conditions): approximately 90%
safety in clinical trials [4]: safe
